Experimental data from patent publication US20230085307A1, “PYRIDAZINONE COMPOUND AND HERBICIDE” (NISSAN CHEMICAL CORPORATION, priority 2019, published 2023).

Tests used:
[1] = test system: blackgrass; assay: Test Example 5: herbicidal effect by foliage application, plastic box (Table 20, symbol J); assay type: in vivo, blackgrass (Alopecurus myosuroides); details: foliage application, 320 g/ha, three weeks after application
Summary of the method: (§1)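 Sow seeds spot-wise in sterilized diluvial soil; cover with ~1.5 cm soil. Grow 14 days in greenhouse, 25° C. to 30° C. Spray foliage with emulsion diluted to predetermined amount. Rate effect after 3 weeks.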

[2] = test system: persian speedwell; assay: Test Example 5: herbicidal effect by foliage application, plastic box (Table 20, symbol R); assay type: in vivo, Persian speedwell (Veronica persica); details: foliage application, 320 g/ha, three weeks after application
Summary of the method: as §1

[3] = test system: Chinese sprangletop; assay: Test Example 3: herbicidal effect by foliage application, Wagner pot (Table 18, symbol D); assay type: in vivo, chinese sprangletop (Leptochloa chinensis); details: amount of applied herbicide 320 g/ha
Summary of the method: (§2)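 Plants were sown in alluvial soil held under 0.1–0.5 cm standing water and grown 14 days in a greenhouse at 25–30 °C. An emulsifiable formulation, water-diluted to the set dose, was then sprayed onto the foliage, and effects were scored three weeks later using previously defined criteria.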

[4] = test system: rice flat sedge; assay: Test Example 3: herbicidal effect by foliage application, Wagner pot (Table 18, symbol E); assay type: in vivo, rice flat sedge (Cyperus iria); details: amount of applied herbicide 320 g/ha
Summary of the method: as §2

[5] = test system: barnyard grass; assay: Test Example 5: herbicidal effect by foliage application, plastic box (Table 20, symbol H); assay type: in vivo, barnyard grass (Echinochloa crus-galli); details: foliage application, 320 g/ha, three weeks after application
Summary of the method: as §1

[6] = test system: Japanese bulrush; assay: Test Example 1: herbicidal activity, application before weed generation under submerged conditions (Table 16, symbol B); assay type: in vivo, Japanese bulrush (Schoenoplectus juncoides); details: amount of applied herbicide 320 g/ha
Summary of the method: (§3)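 Alluvial soil was flooded to 4 cm depth, weed seeds were sown mixed and 2.5-leaf rice seedlings were transplanted. On sowing day, the compound's emulsion, diluted in water to a set dose, was applied to the water surface. Plants grew at 25–30 °C and were scored 0–5 after three weeks.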

[7] = test system: wild oat; assay: Test Example 5: herbicidal effect by foliage application, plastic box (Table 20, symbol I); assay type: in vivo, wild oat (Avena fatua); details: foliage application, 320 g/ha, three weeks after application
Summary of the method: as §1

[8] = test system: late watergrass; assay: Test Example 1: herbicidal activity, application before weed generation under submerged conditions (Table 16, symbol A); assay type: in vivo, late watergrass (Echinochloa oryzicola); details: amount of applied herbicide 320 g/ha
Summary of the method: as §3

[9] = test system: lambsquarters; assay: Test Example 5: herbicidal effect by foliage application, plastic box (Table 20, symbol O); assay type: in vivo, lambsquarters (Chenopodium album); details: foliage application, 320 g/ha, three weeks after application
Summary of the method: as §1

[10] = test system: green foxtail; assay: Test Example 5: herbicidal effect by foliage application, plastic box (Table 20, symbol G); assay type: in vivo, green foxtail (Setaria viridis); details: foliage application, 320 g/ha, three weeks after application
Summary of the method: as §1

[11] = test system: barnyard grass; assay: Test Example 3: herbicidal effect by foliage application, Wagner pot (Table 18, symbol H); assay type: in vivo, barnyard grass (Echinochloa crus-galli); details: amount of applied herbicide 320 g/ha
Summary of the method: as §2

[12] = test system: windgrass; assay: Test Example 5: herbicidal effect by foliage application, plastic box (Table 20, symbol L); assay type: in vivo, windgrass (Apera spica-venti); details: foliage application, 320 g/ha, three weeks after application
Summary of the method: as §1

[13] = test system: southern crabgrass; assay: Test Example 5: herbicidal effect by foliage application, plastic box (Table 20, symbol F); assay type: in vivo, southern crabgrass (Digitaria ciliaris); details: foliage application, 320 g/ha, three weeks after application
Summary of the method: as §1

[14] = test system: Italian ryegrass; assay: Test Example 5: herbicidal effect by foliage application, plastic box (Table 20, symbol K); assay type: in vivo, Italian ryegrass (Lolium multiflorum); details: foliage application, 320 g/ha, three weeks after application
Summary of the method: as §1

[15] = test system: oval-leafed pondweed; assay: Test Example 1: herbicidal activity, application before weed generation under submerged conditions (Table 16, symbol C); assay type: in vivo, oval-leafed pondweed (Monochoria vaginalis); details: amount of applied herbicide 320 g/ha
From the text: [Test Example 1] Herbicidal Activity Test by Application before Weed Generation under Submerged Conditions After alluvial soil was placed into 1/10000 are of Wagner pot, water was poured and mixed to form a submerged condition having a water depth of 4 cm. Seeds of late watergrass, Japanese bulrush, and oval-leafed pondweed were sowed in a mixed manner in the aforementioned pot, and then 2.5 leaf stage rice plant seedlings were transplanted thereto. On the day of sowing seeds, the emulsion agent of the compound of the present invention prepared according to Formulation Example 2 was diluted with water so as to achieve a predetermined herbicide amount, and the diluted emulsion agent was applied to the surface of the water. The pot was placed in a greenhouse at 25° C. to 30° C. for growth of the plants. Three weeks after the herbicide application, the effect of the herbicide on each plant was evaluated according to the following criteria. Evaluation Criteria 5: Herbicidal rate of 90% or more (almost completely withered) 4: Herbicidal rate of 70% or more and less than 90% 3: Herbicidal rate of 40% or more and less than 70% 2: Herbicidal rate of 20% or more and less than 40% 1: Herbicidal rate of 5% or more and less than 20% 0: Herbicidal rate of 5% or less (almost no effect)

[16] = test system: chickweed; assay: Test Example 5: herbicidal effect by foliage application, plastic box (Table 20, symbol P); assay type: in vivo, common chickweed (Stellaria media); details: foliage application, 320 g/ha, three weeks after application
Summary of the method: as §1

[17] = test system: velvetleaf; assay: Test Example 5: herbicidal effect by foliage application, plastic box (Table 20, symbol M); assay type: in vivo, velvetleaf (Abutilon theophrasti); details: foliage application, 320 g/ha, three weeks after application
Summary of the method: as §1

[18] = test system: velvetleaf; assay: Test Example 4: herbicidal effect by soil treatment (Table 19, symbol M); assay type: in vivo, velvetleaf (Abutilon theophrasti); details: amount of applied herbicide 320 g/ha
Summary of the method: (§4)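 Soil-surface application: an emulsion agent diluted with water to the predetermined dose is sprayed uniformly over seeds lying under roughly 1.5 cm of sterilized diluvial soil. Boxes stay in a greenhouse at 25° C. to 30° C. Three weeks later, each species is graded on previously defined criteria.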

[19] = test system: barnyard grass; assay: Test Example 4: herbicidal effect by soil treatment (Table 19, symbol H); assay type: in vivo, barnyard grass (Echinochloa crus-galli); details: amount of applied herbicide 320 g/ha
Summary of the method: as §4

[20] = test system: redroot pigweed; assay: Test Example 4: herbicidal effect by soil treatment (Table 19, symbol N); assay type: in vivo, redroot pigweed (Amaranthus retroflexus); details: amount of applied herbicide 320 g/ha
Summary of the method: as §4

[21] = test system: green foxtail; assay: Test Example 4: herbicidal effect by soil treatment (Table 19, symbol G); assay type: in vivo, green foxtail (Setaria viridis); details: amount of applied herbicide 320 g/ha
Summary of the method: as §4

[22] = test system: southern crabgrass; assay: Test Example 4: herbicidal effect by soil treatment (Table 19, symbol F); assay type: in vivo, southern crabgrass (Digitaria ciliaris); details: amount of applied herbicide 320 g/ha
Summary of the method: as §4

[23] = test system: lambsquarters; assay: Test Example 4: herbicidal effect by soil treatment (Table 19, symbol O); assay type: in vivo, lambsquarters (Chenopodium album); details: amount of applied herbicide 320 g/ha
Summary of the method: as §4

[24] = test system: redroot pigweed; assay: Test Example 5: herbicidal effect by foliage application, plastic box (Table 20, symbol N); assay type: in vivo, redroot pigweed (Amaranthus retroflexus); details: foliage application, 320 g/ha, three weeks after application
Summary of the method: as §1

CCc1nn(C)c(=O)c(-c2c(-c3ccccc3OC)sc3ccc(F)cc23)c1O [2-414]
J: blackgrass, herbicidal effect grade [1]: 2 (Herbicidal rate of 20% or more and less than 40%) | R: persian speedwell, herbicidal effect grade [2]: 5 (Herbicidal rate of 90% or more (almost completely withered)) | herbicidal effect on D: Chinese sprangletop [3]: 3 (Herbicidal rate of 40% or more and less than 70%) | herbicidal effect on E: rice flat sedge [4]: 3 (Herbicidal rate of 40% or more and less than 70%) | H: barnyard grass, herbicidal effect grade [5]: 3 (Herbicidal rate of 40% or more and less than 70%) | Herbicidal effect, B: Japanese bulrush [6]: 3 (Herbicidal rate of 40% or more and less than 70%) | I: wild oat, herbicidal effect grade [7]: 0 (Herbicidal rate of 5% or less (almost no effect)) | Herbicidal effect, A: late watergrass [8]: 2 (Herbicidal rate of 20% or more and less than 40%) | O: lambsquarters, herbicidal effect grade [9]: 3 (Herbicidal rate of 40% or more and less than 70%) | G: green foxtail, herbicidal effect grade [10]: 2 (Herbicidal rate of 20% or more and less than 40%) | herbicidal effect on H: barnyard grass [11]: 4 (Herbicidal rate of 70% or more and less than 90%) | L: windgrass, herbicidal effect grade [12]: 3 (Herbicidal rate of 40% or more and less than 70%) | F: southern crabgrass, herbicidal effect grade [13]: 1 (Herbicidal rate of 5% or more and less than 20%) | K: Italian ryegrass, herbicidal effect grade [14]: 1 (Herbicidal rate of 5% or more and less than 20%) | Herbicidal effect, C: oval-leafed pondweed [15]: 2 (Herbicidal rate of 20% or more and less than 40%) | P: chickweed, herbicidal effect grade [16]: 5 (Herbicidal rate of 90% or more (almost completely withered)) | M: velvetleaf, herbicidal effect grade [17]: 3 (Herbicidal rate of 40% or more and less than 70%)

Cc1nn(C)c(=O)c(-c2c(-c3ccc(OCC=C(Cl)Cl)cc3)sc3ccc(F)cc23)c1O [2-442]
herbicidal effect, M: velvetleaf [18]: 0 (Herbicidal rate of 5% or less (almost no effect)) | herbicidal effect on D: Chinese sprangletop [3]: 2 (Herbicidal rate of 20% or more and less than 40%) | herbicidal effect on E: rice flat sedge [4]: 3 (Herbicidal rate of 40% or more and less than 70%) | herbicidal effect, H: barnyard grass [19]: 0 (Herbicidal rate of 5% or less (almost no effect)) | H: barnyard grass, herbicidal effect grade [5]: 4 (Herbicidal rate of 70% or more and less than 90%) | Herbicidal effect, B: Japanese bulrush [6]: 2 (Herbicidal rate of 20% or more and less than 40%) | Herbicidal effect, A: late watergrass [8]: 3 (Herbicidal rate of 40% or more and less than 70%) | herbicidal effect, N: redroot pigweed [20]: 3 (Herbicidal rate of 40% or more and less than 70%) | O: lambsquarters, herbicidal effect grade [9]: 5 (Herbicidal rate of 90% or more (almost completely withered)) | G: green foxtail, herbicidal effect grade [10]: 3 (Herbicidal rate of 40% or more and less than 70%) | herbicidal effect, G: green foxtail [21]: 0 (Herbicidal rate of 5% or less (almost no effect)) | herbicidal effect on H: barnyard grass [11]: 5 (Herbicidal rate of 90% or more (almost completely withered)) | herbicidal effect, F: southern crabgrass [22]: 0 (Herbicidal rate of 5% or less (almost no effect)) | herbicidal effect, O: lambsquarters [23]: 1 (Herbicidal rate of 5% or more and less than 20%) | F: southern crabgrass, herbicidal effect grade [13]: 3 (Herbicidal rate of 40% or more and less than 70%) | N: redroot pigweed, herbicidal effect grade [24]: 5 (Herbicidal rate of 90% or more (almost completely withered)) | Herbicidal effect, C: oval-leafed pondweed [15]: 2 (Herbicidal rate of 20% or more and less than 40%) | M: velvetleaf, herbicidal effect grade [17]: 4 (Herbicidal rate of 70% or more and less than 90%)
